Test systems include 786-0 renal; EKVX NSCLC; HCC-2998 colon; HOP-62 NSCLC; KM12 colon; LOX IMVI melanoma; OVCAR-8 ovarian; SK-MEL-2 melanoma; UO-31 renal; SNB-75 CNS.
Common to all, as to experiment: inhibition of tumour cell growth, NCI panel, 48 h

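Each compound was tested at five concentrations against cells in 96-well plates for 48 hours. The concentration for 50% growth inhibition is given as GI50. TGI denotes the concentration required for complete inhibition of growth.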

Regarding `COc1c(O)cc2c(c1O)C(=O)C1=C(CCCC1)C2=O`, the TGI in the assay with 786-0 renal is 49.4 µM; with EKVX NSCLC it was 86.6 µM; with HCC-2998 colon, 47.7 µM; with HOP-62 NSCLC it was > 100 µM; in the assay on KM12 colon it was 65.5 µM; in the assay with LOX IMVI melanoma it was 33.6 µM. The TGI was 57.5 µM with OVCAR-8 ovarian, > 100 µM in the assay with SK-MEL-2 melanoma and 43.8 µM in the assay with UO-31 renal.

In the case of `Cc1ccc(-c2nc3cc(Cl)c(Cl)cc3nc2C#N)cc1`, the GI50 in the assay with 786-0 renal was 47.5 µM; in the assay with EKVX NSCLC it was > 100 µM; in the assay with HOP-62 NSCLC, > 100 µM; in the assay on KM12 colon it was > 100 µM; in the assay on LOX IMVI melanoma it was > 100 µM; with OVCAR-8 ovarian, > 100 µM. Besides, the GI50 with SK-MEL-2 melanoma, in the assay on SNB-75 CNS and with UO-31 renal was > 100 µM each time. In addition, the TGI with 786-0 renal, in the assay with EKVX NSCLC, with HOP-62 NSCLC, with KM12 colon, in the assay on LOX IMVI melanoma and in the assay on OVCAR-8 ovarian was > 100 µM throughout. The TGI with SK-MEL-2 melanoma, with SNB-75 CNS and in the assay with UO-31 renal was > 100 µM each time.

On to `CN(NC1OC(CO)C(O)C(O)C1O)c1ccccc1` (centres undefined), for which the TGI with 786-0 renal, in the assay with HCC-2998 colon, in the assay on HOP-62 NSCLC, in the assay with KM12 colon, in the assay on LOX IMVI melanoma and in the assay on OVCAR-8 ovarian was > 100 µM in each case.

Regarding `O=C(O)c1c(Cl)c(Cl)c(Cl)c(Cl)c1C(=O)Nc1ccc2cn[nH]c2c1`, the TGI with 786-0 renal, in the assay on EKVX NSCLC, in the assay on HOP-62 NSCLC, in the assay on KM12 colon, in the assay on OVCAR-8 ovarian and in the assay with SK-MEL-2 melanoma was > 100 µM in each case. Further, the TGI in the assay on SNB-75 CNS and with UO-31 renal was > 100 µM in each case.

`N#Cc1ccccc1C#C/C=C\C#CC#C/C=C\C#Cc1ccccc1C#N`: the GI50 is 16.6 µM with 786-0 renal; 16.5 µM in the assay on EKVX NSCLC; 16.5 µM in the assay on HOP-62 NSCLC; 16.9 µM in the assay with KM12 colon; 17.3 µM in the assay on LOX IMVI melanoma; 47.6 µM with OVCAR-8 ovarian. Besides, the results for the GI50 in the assay with SK-MEL-2 melanoma and with UO-31 renal were 22.1 µM and 21.8 µM, respectively. For the same compound, the TGI with 786-0 renal is 42.1 µM; in the assay on EKVX NSCLC it was > 100 µM; in the assay on HOP-62 NSCLC, 43.5 µM; with KM12 colon, 38.4 µM; with LOX IMVI melanoma, 45 µM; with OVCAR-8 ovarian, > 100 µM. The results for the TGI with SK-MEL-2 melanoma and in the assay with UO-31 renal were 62.7 µM and > 100 µM, respectively.

As to `C[C@@H](NC(=O)c1ncnc(N)c1Cl)c1ncc(C(=O)Nc2cc(C(F)(F)F)c(Cl)cn2)s1`, the GI50 in the assay on 786-0 renal is 36.3 µM; with HCC-2998 colon, 13.7 µM; with HOP-62 NSCLC it was 24.3 µM; in the assay on KM12 colon, 21.3 µM; with LOX IMVI melanoma, 3.32 µM; with OVCAR-8 ovarian, 15.1 µM. The GI50 in the assay on SK-MEL-2 melanoma was 2.08 µM; in the assay with SNB-75 CNS, 23.1 µM; with UO-31 renal, 8.98 µM. In addition, the TGI is > 100 µM in the assay with 786-0 renal; 40.7 µM in the assay with HCC-2998 colon; 84.8 µM in the assay on HOP-62 NSCLC; > 84.6 µM in the assay with KM12 colon; 54 µM with LOX IMVI melanoma; 40.8 µM with OVCAR-8 ovarian. Also, the results for the TGI in the assay with SK-MEL-2 melanoma, with SNB-75 CNS and in the assay with UO-31 renal were 8.04 µM, 94.4 µM and 44.4 µM, respectively.

On to `CCN(CC)c1ccc2nc3c4ccccc4c(=O)cc-3n(-c3ccccc3)c2c1`, for which the GI50 in the assay on 786-0 renal is 2.66 µM; with EKVX NSCLC it was 1.04 µM; with HOP-62 NSCLC, 1.08 µM; in the assay with KM12 colon, 1.69 µM; in the assay on LOX IMVI melanoma it was 1.62 µM; in the assay on OVCAR-8 ovarian, 1.75 µM. The GI50 was 1.42 µM in the assay with SK-MEL-2 melanoma, 2.34 µM in the assay on SNB-75 CNS and 0.786 µM in the assay on UO-31 renal. Moreover, the TGI in the assay with 786-0 renal came to 8.86 µM; in the assay on EKVX NSCLC, 5.85 µM; in the assay on HOP-62 NSCLC, 3.6 µM; with KM12 colon, 4.46 µM; with LOX IMVI melanoma it was 3.72 µM; in the assay with OVCAR-8 ovarian, 5.11 µM. The TGI in the assay on SK-MEL-2 melanoma was determined as 3.95 µM; in the assay on SNB-75 CNS, 12.7 µM; with UO-31 renal, 3.48 µM.

Consider `c1ccc(-c2n(Cc3ccc4ccccc4c3)cc[n+]2Cc2ccc3ccccc3c2)cc1`, for which the GI50 in the assay on 786-0 renal is 1.46 µM; in the assay with SNB-75 CNS, 1.16 µM; in the assay on UO-31 renal it was 1.47 µM. Further, the TGI was determined as 3.02 µM in the assay on 786-0 renal, 2.58 µM in the assay on SNB-75 CNS and 2.87 µM in the assay with UO-31 renal.

In the case of `NC1=NC(=O)/C(=C/c2ccc3ncccc3c2)S1`, the GI50 in the assay with 786-0 renal, with HCC-2998 colon, in the assay on HOP-62 NSCLC, in the assay with KM12 colon, with LOX IMVI melanoma and in the assay with OVCAR-8 ovarian was > 25 µM each time. The GI50 with SK-MEL-2 melanoma is > 20.7 µM; with SNB-75 CNS, > 25 µM; in the assay with UO-31 renal it was > 25 µM. Also, the TGI in the assay on 786-0 renal, in the assay on HCC-2998 colon, with HOP-62 NSCLC, with KM12 colon, with LOX IMVI melanoma and in the assay on OVCAR-8 ovarian was > 25 µM in each case. Also, the TGI in the assay on SK-MEL-2 melanoma, with SNB-75 CNS and in the assay with UO-31 renal was > 25 µM each time.

On to `Clc1ccc(OCc2nnc3n2N=C(c2ccc(Br)cc2)CS3)cc1`, for which the TGI in the assay on 786-0 renal is > 100 µM; in the assay with HCC-2998 colon, > 100 µM; in the assay on KM12 colon it was > 100 µM; with LOX IMVI melanoma, 46 µM; in the assay on OVCAR-8 ovarian, > 100 µM; in the assay with SK-MEL-2 melanoma, 66.9 µM. In addition, the TGI with UO-31 renal is 19.6 µM.

Regarding `C(=Nc1cnc2ccccc2c1)c1ccc2ccccc2n1`, the TGI with 786-0 renal, with EKVX NSCLC, in the assay with HOP-62 NSCLC, in the assay on KM12 colon, with LOX IMVI melanoma and in the assay with OVCAR-8 ovarian was > 100 µM each time. For the same compound, the TGI in the assay with SK-MEL-2 melanoma, in the assay on SNB-75 CNS and in the assay with UO-31 renal was > 100 µM in each case.

As for `CC(=O)OCC1OC(OCc2ccccc2)C(Br)C(OC(C)=O)C1OC(C)=O` (centres undefined), the TGI with 786-0 renal, in the assay on HCC-2998 colon, in the assay with HOP-62 NSCLC, in the assay on KM12 colon, in the assay with LOX IMVI melanoma and in the assay with OVCAR-8 ovarian was > 100 µM throughout.

Source of the values: PubChem BioAssay (NCI).
